Data published in PubChem BioAssay (NCI).
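Results reflect a 48-hour exposure of cells in 96-well plates to compound at five concentrations. Definition used: TGI = concentration required for complete inhibition of growth.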

Key:
Test in all cases: DTP human tumour cell line panel, 48 h
HT29 colon = test system: HT29 colon
M14 melanoma = test system: M14 melanoma
HCT-116 colon = test system: HCT-116 colon
SNB-78 CNS = test system: SNB-78 CNS
K-562 leukemia = test system: K-562 leukemia
RPMI-8226 leukemia = test system: RPMI-8226 leukemia
OVCAR-8 ovarian = test system: OVCAR-8 ovarian
HCC-2998 colon = test system: HCC-2998 colon
OVCAR-5 ovarian = test system: OVCAR-5 ovarian
KM20L2 colon = test system: KM20L2 colon
A498 renal = test system: A498 renal
SK-OV-3 ovarian = test system: SK-OV-3 ovarian
SW-620 colon = test system: SW-620 colon
M19-MEL melanoma = test system: M19-MEL melanoma
UACC-257 melanoma = test system: UACC-257 melanoma
NCI-H226 lung = test system: NCI-H226 lung
CCRF-CEM leukemia = test system: CCRF-CEM leukemia
U251 CNS = test system: U251 CNS
MALME-3M melanoma = test system: MALME-3M melanoma
LXFL 529 NSCLC = test system: LXFL 529 NSCLC
SNB-19 CNS = test system: SNB-19 CNS
NCI-H23 lung = test system: NCI-H23 lung
NCI-H522 lung = test system: NCI-H522 lung
IGROV1 ovarian = test system: IGROV1 ovarian
SK-MEL-2 melanoma = test system: SK-MEL-2 melanoma
SF-268 CNS = test system: SF-268 CNS
SK-MEL-28 melanoma = test system: SK-MEL-28 melanoma
NCI-H460 lung = test system: NCI-H460 lung
MOLT-4 leukemia = test system: MOLT-4 leukemia
SNB-75 CNS = test system: SNB-75 CNS
HOP-62 NSCLC = test system: HOP-62 NSCLC
HCT-15 colon = test system: HCT-15 colon
SF-295 CNS = test system: SF-295 CNS
SR leukemia = test system: SR leukemia
ACHN renal = test system: ACHN renal
KM12 colon = test system: KM12 colon
SF-539 CNS = test system: SF-539 CNS
RXF 393 renal = test system: RXF 393 renal
SK-MEL-5 melanoma = test system: SK-MEL-5 melanoma
UO-31 renal = test system: UO-31 renal
786-0 renal = test system: 786-0 renal
DLD-1 colon = test system: DLD-1 colon
EKVX NSCLC = test system: EKVX NSCLC
TK-10 renal = test system: TK-10 renal
XF 498 CNS = test system: XF 498 CNS
A549 NSCLC = test system: A549 NSCLC
HOP-18 NSCLC = test system: HOP-18 NSCLC
SN12C renal = test system: SN12C renal
DMS 273 small cell lung = test system: DMS 273 small cell lung
HL-60(TB) leukemia = test system: HL-60(TB) leukemia
COLO 205 colon = test system: COLO 205 colon
DMS 114 small cell lung = test system: DMS 114 small cell lung
OVCAR-3 ovarian = test system: OVCAR-3 ovarian
CAKI-1 renal = test system: CAKI-1 renal
UACC-62 melanoma = test system: UACC-62 melanoma
OVCAR-4 ovarian = test system: OVCAR-4 ovarian
HOP-92 NSCLC = test system: HOP-92 NSCLC
LOX IMVI melanoma = test system: LOX IMVI melanoma

Measured: TGI

Cc1ccc(C2=C(c3ccccc3)C(=O)C(c3ccccc3)=C2c2ccc(C)cc2)cc1
46.9 µM: SF-539 CNS
85.1 µM: NCI-H23 lung
95.7 µM: SW-620 colon
70.5 µM: CCRF-CEM leukemia
48 µM: SK-MEL-28 melanoma
not listed: DMS 273 small cell lung | HL-60(TB) leukemia | COLO 205 colon | DMS 114 small cell lung | OVCAR-3 ovarian | CAKI-1 renal | UACC-62 melanoma | OVCAR-4 ovarian | HOP-92 NSCLC | LOX IMVI melanoma
> 100 µM: all other assays above

O=C1OC(CC(=O)c2ccc(Cl)cc2)C(Cl)=C1Cl (stereo unspecified)
76.9 µM: HL-60(TB) leukemia
not listed: SNB-78 CNS | RXF 393 renal | LOX IMVI melanoma
> 100 µM: all other assays above

Cc1ccc(-n2c(=S)[nH]c3ccc(Br)cc3c2=O)cc1
not listed: M14 melanoma | SNB-78 CNS | SK-OV-3 ovarian | CCRF-CEM leukemia | SK-MEL-28 melanoma | SK-MEL-5 melanoma | DMS 273 small cell lung | CAKI-1 renal | UACC-62 melanoma
> 100 µM: all other assays above

[O-][n+]1c2cc(CBr)c(CBr)cc2[n+]([O-])c2c(O)cccc21
3.51 µM: ACHN renal
3.32 µM: M19-MEL melanoma
3.69 µM: RXF 393 renal
2.9 µM: SW-620 colon
4.21 µM: NCI-H460 lung
11 µM: SNB-19 CNS
1.14 µM: HL-60(TB) leukemia
4.83 µM: SK-MEL-2 melanoma
1.25 µM: MOLT-4 leukemia
6.7 µM: CAKI-1 renal
3.27 µM: SF-295 CNS
10.9 µM: TK-10 renal
4.56 µM: UO-31 renal
3.88 µM: HT29 colon
4.48 µM: SNB-75 CNS
2.89 µM: LXFL 529 NSCLC
0.714 µM: CCRF-CEM leukemia
3.18 µM: HCT-15 colon
10.5 µM: HOP-18 NSCLC
5.91 µM: SF-268 CNS
2.93 µM: 786-0 renal
3.67 µM: SK-MEL-28 melanoma
2.64 µM: LOX IMVI melanoma
5.24 µM: OVCAR-3 ovarian
2.71 µM: DLD-1 colon
3.3 µM: OVCAR-8 ovarian
3.66 µM: KM12 colon
14.2 µM: NCI-H226 lung
3.29 µM: M14 melanoma
5.25 µM: OVCAR-4 ovarian
25.7 µM: A498 renal
34.7 µM: HOP-62 NSCLC
8.59 µM: IGROV1 ovarian
9.53 µM: KM20L2 colon
3.05 µM: SN12C renal
3.74 µM: OVCAR-5 ovarian
2.92 µM: HOP-92 NSCLC
9.15 µM: SK-OV-3 ovarian
4.67 µM: XF 498 CNS
7.07 µM: U251 CNS
3.22 µM: DMS 273 small cell lung
0.662 µM: SR leukemia
2.87 µM: HCT-116 colon
3.47 µM: COLO 205 colon | MALME-3M melanoma
11.6 µM: EKVX NSCLC
6.37 µM: UACC-257 melanoma
6.68 µM: NCI-H23 lung
3.35 µM: DMS 114 small cell lung
1.16 µM: NCI-H522 lung
4.39 µM: SK-MEL-5 melanoma
9.03 µM: A549 NSCLC
3.39 µM: UACC-62 melanoma

CC(C)(C)c1cc(COc2c3sc(=S)sc3c(OCc3cc(C(C)(C)C)cc(C(C)(C)C)c3)c3sc(=S)sc23)cc(C(C)(C)C)c1
not listed: SNB-78 CNS | OVCAR-5 ovarian | NCI-H226 lung | MALME-3M melanoma | NCI-H522 lung | SK-MEL-2 melanoma | SF-268 CNS | SR leukemia | KM12 colon | UO-31 renal | DMS 114 small cell lung | HOP-92 NSCLC
> 100 µM: all other assays above
